Data from patent US10947284B2, “Fusion molecules” (Pieris Pharmaceuticals GMBH, priority 2015, dated 2021).

Legend:
[1] = target: hNGAL (human lipocalin 2), wild type, SEQ ID NO: 1 (Homo sapiens, UniProt P80188); test: Surface plasmon resonance (Biacore T200); type: binding; details: positive control
From the text: In a surface plasmon resonance (SPR) based assay, a Biacore T200 instrument (GE Healthcare) was used to measure the binding affinity of individual muteins or fusion molecules to pyoverdine siderophores (to pyoverdine I succinyl, -succinamide, -α-ketoglutaryl with complexed iron ion or to pyoverdine II succinyl, -succinamide, -α-ketoglutaryl with complexed iron ion or to pyoverdine III succinyl, -succinamide, -α-ketoglutaryl with complexed iron ion). To this end, muteins selected for binding to pyoverdines (SEQ ID NOs: 16, 36, 53), a fusion molecule (SEQ ID NO: 134) and a negative control (SEQ ID NO: 64) were biotinylated for 2 h at room temperature applying an appropriate excess of EZ-Link NHS-PEG4-Biotin (Thermo, Cat #21329) followed by separation of non-reacted biotin using a Zebra Spin Desalting Plate (Thermo, […]) according to the manufacturer's instructions.
In the SPR affinity assay, biotinylated muteins and negative control were captured on a sensor chip CAP using the Biotin CAPture Kit (GE Healthcare), wherein the Sensor Chip CAP is pre-immobilized with an ssDNA oligo. […] After ligand immobilization, the four concentrations of Pvd were applied consecutively in ascending order before the dissociation was monitored. […] Data were evaluated with Biacore T200 Evaluation software (V 1.0). […]

[2] = target: T1, hNGAL (human lipocalin 2, parent wild type SEQ ID NO: 1) mutein SEQ ID NO: 62 (Homo sapiens, UniProt P80188, A60Q/C107S/D65G/D97L/I61W/K145F/K154F/K66R/K93I/L123G/L56H/L90D/N85D/Q69R/R101T/R92A/S147I/S88D/W99R/Y120H/Y126G/Y152A/Y72W); test: Surface plasmon resonance (Biacore T200), CM5 chip; type: binding; details: SPR, high concentrations (≥1 μM)
T1 construct: made in house
T1 sequence (P80188 21-198 with the stated changes): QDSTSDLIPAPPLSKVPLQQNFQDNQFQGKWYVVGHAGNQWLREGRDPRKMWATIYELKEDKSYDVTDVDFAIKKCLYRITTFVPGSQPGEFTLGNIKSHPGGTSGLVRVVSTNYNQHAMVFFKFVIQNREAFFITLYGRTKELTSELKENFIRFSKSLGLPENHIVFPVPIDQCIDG
Procedure: (§1) Subsequently, 5 μg/mL of mutein or the negative control solution in 10 mM acetate pH 4.0 was applied at a flow rate of 10 μl/min until a high immobilization level of approximately 2000 RU was achieved. Residual activated groups were quenched with ethanolamine. The reference channels were treated with EDC/NHS following ethanolamine (blank immobilization).
The binding assay was carried out with a contact time of 180 s, dissociation times of 1200-1800 s and applying a flow rate of 30 μl/min. Measurements were performed at 25° C. Regeneration of the immobilized mutein surface was achieved by three consecutive injections of 10 mM Gly-HCl pH 1.5 (120 s) followed by an extra wash with running buffer and a stabilization period. Data were evaluated with Biacore T200 Evaluation software (V 1.0). Double referencing was used. The 1:1 Binding model was used to fit the raw data.
Subsequently, 5 μg/mL of mutein or the negative control solution in 10 mM acetate pH 4.0 was applied at a flow rate of 10 μl/min until a high immobilization level of approximately 2000 RU was achieved. Residual activated groups were quenched with ethanolamine. The reference channels were treated with EDC/NHS following ethanolamine (blank immobilization). […] The binding assay was carried out with a contact time of 180 s, dissociation times of 1500-1800 s and applying a flow rate of 30 μl/min. Measurements were performed at 25° C. Regeneration of the immobilized mutein surface was achieved by three consecutive injections of 10 mM Gly-HCl pH 1.5 (120 s) followed by an extra wash with running buffer and a stabilization period. Data were evaluated with Biacore T200 Evaluation software (V 1.0). Double referencing was used. The 1:1 Binding model was used to fit the raw data.

[3] = target: T2, Fusion molecule SEQ ID NO: 134 (hNGAL muteins SEQ ID NOs: 36, 16, 53 and 62) (Homo sapiens, UniProt P80188, A60T/C107S/D97H, form not given/K145I/K154W/K93R/L123T/L56V/L90R/N85D/Q69G/R101D/R92I/S147R/S88D/T74A/W99Y/Y126Q/Y152I/Y72N); test: Surface plasmon resonance (Biacore T200); type: binding
T2 construct: made in house; host or cells: HEK293
T2 sequence (P80188 with tags, fused parts or gaps with the stated changes, form open): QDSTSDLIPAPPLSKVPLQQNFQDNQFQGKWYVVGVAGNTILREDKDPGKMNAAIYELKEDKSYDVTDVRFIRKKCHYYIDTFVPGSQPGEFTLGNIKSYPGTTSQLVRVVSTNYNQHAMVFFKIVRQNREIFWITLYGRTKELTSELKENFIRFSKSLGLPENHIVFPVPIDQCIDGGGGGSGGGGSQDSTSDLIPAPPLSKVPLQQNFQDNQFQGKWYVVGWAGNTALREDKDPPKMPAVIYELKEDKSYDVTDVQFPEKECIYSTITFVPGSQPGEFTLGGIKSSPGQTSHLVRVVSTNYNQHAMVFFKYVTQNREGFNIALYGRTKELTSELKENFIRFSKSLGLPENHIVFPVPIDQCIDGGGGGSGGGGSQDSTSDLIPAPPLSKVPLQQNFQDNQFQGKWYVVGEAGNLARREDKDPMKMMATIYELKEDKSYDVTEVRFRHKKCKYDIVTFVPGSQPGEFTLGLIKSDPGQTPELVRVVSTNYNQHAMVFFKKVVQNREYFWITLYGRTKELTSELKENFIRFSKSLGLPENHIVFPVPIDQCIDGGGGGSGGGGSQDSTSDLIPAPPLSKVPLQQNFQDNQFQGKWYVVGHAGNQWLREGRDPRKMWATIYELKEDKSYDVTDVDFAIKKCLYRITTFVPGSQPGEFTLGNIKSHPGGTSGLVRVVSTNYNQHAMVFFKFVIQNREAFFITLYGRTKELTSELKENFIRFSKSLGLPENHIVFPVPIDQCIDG

[4] = target: lipocalin negative control SEQ ID NO: 64 (Homo sapiens, UniProt P80188, C107S/Q48H); test: Surface plasmon resonance (Biacore T200); type: binding; details: Biacore, Example 18
Chain of lipocalin negative control SEQ ID NO: 64 (P80188 21-198 Q48H/C107S): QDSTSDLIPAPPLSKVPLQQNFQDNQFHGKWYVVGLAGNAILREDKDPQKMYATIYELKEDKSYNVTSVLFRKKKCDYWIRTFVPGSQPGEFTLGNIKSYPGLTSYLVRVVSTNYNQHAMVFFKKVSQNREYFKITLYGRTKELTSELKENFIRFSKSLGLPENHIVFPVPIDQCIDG
Procedure: In a Surface Plasmon Resonance (SPR) based assay a Biacore T200 instrument (GE Healthcare) was used to measure the binding affinity of muteins to pyoverdine I succinyl, -succinamide, -α-ketoglutaryl with complexed iron ion or to pyoverdine II succinyl, -succinamide, -α-ketoglutaryl with complexed iron ion or to pyoverdine III succinyl, -succinamide, -α-ketoglutaryl with complexed iron ion. Muteins selected for binding to pyoverdines and negative control (SEQ ID NO: 64) were biotinylated for 2 h at room temperature applying an appropriate excess of EZ-Link NHS-PEG4-Biotin (Thermo, Cat #21329) followed by separation of non-reacted Biotin using a Zebra Spin Desalting Plate (Thermo, Cat #21329) according to the manufactures instructions.
In the SPR affinity assay, biotinylated muteins and negative control were captured on a sensor chip CAP using the Biotin CAPture Kit (GE Healthcare): Sensor Chip CAP is pre-immobilized with an ssDNA oligo. Undiluted Biotin CAPture Reagent (streptavidin conjugated with the complementary ss-DNA oligo) was applied at a flow rate of 2 μl/min for 300 s. Subsequently, 1 μg/ml to 100 μg/mL of biotinylated muteins or negative control were applied for 300 s at a flow rate of 5 μl/min. The reference channel was loaded with Biotin CAPture Reagent only.
Applying a flow rate of 30 μl/min, a single cycle or multi cycle kinetics approach was used with a sample contact time of 120-180 s and a dissociation time of 900-2400 s. […] After ligand immobilization, for analysis using single cycle kinetics all 4-5 concentrations of Pvd were applied consecutively in ascending order before the dissociation was monitored. For analysis using multi cycle kinetics 4 dilutions of Pvd were applied, each followed a dissociation phase. All measurements were performed at 25° C. […] Data were evaluated with Biacore T200 Evaluation software (V 1.0). Double referencing was used. A 1:1 Binding model was used to fit the raw data.
as §1
In the SPR affinity assay, biotinylated muteins and negative control were captured on a sensor chip CAP using the Biotin CAPture Kit (GE Healthcare), wherein the Sensor Chip CAP is pre-immobilized with an ssDNA oligo. Undiluted Biotin CAPture Reagent (streptavidin conjugated with the complementary ss-DNA oligo) was applied at a flow rate of 2 μl/min for 300 s. Subsequently, 20 μg/ml to 100 μg/mL of biotinylated muteins or fusion molecule negative control were applied for 300 s at a flow rate of 5 μl/min. The reference channel was loaded with Biotin CAPture Reagent only. To determine the binding affinity, four dilutions of the respective Pvd were prepared in HBS-EP+ buffer (GE Healthcare) and applied to the chip surface. Applying a flow rate of 30 μl/min, a single cycle kinetics approach was used with a sample contact time of 180 s and a dissociation time of 1800-2400 s. […] After ligand immobilization, the four concentrations of Pvd were applied consecutively in ascending order before the dissociation was monitored. All measurements were performed at 25° C. […] Data were evaluated with Biacore T200 Evaluation software (V 1.0). Double referencing was preformed. A 1:1 binding model was used to fit the raw data.

P. aeruginosa PA01 = test: Chronic lung infection model in rats; type: in vivo, Sprague Dawley rats; details: 20 mg/kg/dose, IV BD, treatment from day 3 post infection
Procedure: P. aeruginosa, PA01, was recovered from long-term storage at −80° C. by sub-culturing onto fresh blood agar plates and incubating at 37° C. overnight. The inoculum was prepared by picking 5-10 distinct colonies from the culture plates followed by suspension in 10 mL of Muller-Hinton broth. The culture was incubated for 18 hours on an orbital shaker at 300 rpm and 37° C. The culture was washed twice in PBS, then the pellet was resuspended in PBS and adjusted to an optical density of 0.669 at 600 nm (approximately 1.2×10^9 CFU/mL). This was further diluted to give an inoculum concentration of 6×10^7 CFU/mL. 1 mL of this inoculum was added to 30 mL of bacteriological agar, used to prepare the agarose beads (Cash H. A. et al., 1979). The final concentration of PA01 in the agarose beads was 2×10^6 CFU/mL (1×10^5 CFU per 50 μL inoculum).
Sprague Dawley rats used in this study were supplied by Charles River Laboratories UK. Rats were 200-225 g at the time of delivery and were specific pathogen free. Following arrival, rats were allowed at least 7 days acclimatization before the study was started. Rats were 250-300 g at the start of the study. Rats were group housed in sterile individually ventilated cages exposing the animals at all times to HEPA filtered sterile air. Rats had free access to food and water (sterile) and had sterile aspen chip bedding (changed every 3-4 days or as appropriate). […]

Chain of hNGAL (human lipocalin 2), wild type, SEQ ID NO: 1 (P80188 21-198): as the sequence (P80188 21-198 Q48H/C107S) above, with H28Q, S87C counted along it

Row | Structure (SMILES) | binding [1] | binding [2] | KD ([3]; Biacore, 25° C., Table 13) | binding ([3]; SPR, high concentrations (≥1 μM)) | binding [4] | clearance of lung infection (P. aeruginosa PA01)
1 | O=C(N[C@H]1COC(=O)[C@@H](NC(=O)c2cccc(O)c2O)COC(=O)[C@@H](NC(=O)c2cccc(O)c2O)COC1=O)c1cccc(O)c1O.[Fe+3] [Fe-Enterobactin, Fe-enterobactin] | showed binding | absence of binding | no bdg | absence of binding | showed binding | 
2 | NC[C@H]1O[C@H](O[C@H]2[C@H](O)[C@@H](O[C@H]3O[C@H](CO)[C@@H](O)[C@H](N)[C@H]3O)[C@H](N)C[C@@H]2N)[C@H](N)C[C@@H]1O [Tobramycin] |  |  |  |  |  | cleared the infection starting from day 5 post-infection
